Experimental data from article PMC7689089, “Regorafenib combined with PD1 blockade increases CD8 T-cell infiltration by inducing CXCL10 expression in hepatocellular carcinoma” (Journal for Immunotherapy of Cancer, 2020).

Key:
[1] = tested on: RIL-175 HCC vasculature; test: Tumor vessel and hypoxia immunofluorescence (CD31, α-SMA, CA-IX) in RIL-175 orthotopic HCC; assay type: in vivo, mouse; conditions: regorafenib 10 mg/kg; day 12; vs control
Method: Figure 1 Dose-dependent effects of regorafenib on vascular normalization when used in combination with programmed cell death protein 1 (PD1) blockade in RIL-175 hepatocellular carcinoma (HCC) model. (A, B) Mice with established (4–5 mm in diameter) HCCs were treated with anti-PD1 therapy (P) alone or in combination with 5 mg/kg (R5), 10 mg/kg (R10) or 20 mg/kg (R20) regorafenib versus control (C) (n=8 mice per group, 1-week treatment). We used immunofluorescence (IF) for evaluation of tumor vessels by CD31 and α-smooth muscle actin (α-SMA) immunostaining. […] Representative IF of tumor sections after staining for CD31 (for endothelial cells in green) and α-SMA (for pericytes in red) and DAPI counterstaining (in blue). Five random fields from the tumor center (defined as no inclusion of the edge of the tumor) were evaluated for each sample. Data represent mean values. Scale bars=500 µm. (C) Representative IF confocal microscopy images of tumor vessels using and CD31 staining (green) and tissue hypoxia using CA-IX staining (red) of whole liver sections; scale bars=2 mm. […] (E) Representative IF confocal microscopy images of mature tumor vessels using CD31 staining (green) and α-SMA staining (red) of RIL-175 tumors; scale bars, 100 µm.

[2] = tested on: RIL-175 cells; test: CXCL10 secretion by RIL-175 cells in vitro (ELISA); assay type: cell-based, mouse; conditions: 36 hours
Description: To determine if CXCL10 was produced by murine HCC cells in response to regorafenib treatment, we next cultured RIL-175 cells with various concentration of regorafenib in vitro and measured the CXCL10 levels by ELISA. […]
treated by regorafenib as standard of care (HCC) (using the DFCI Protocol No.: 13-416 “Collection of Specimens and Clinical Data for Patients with Known or Suspected Solid Tumors”, PI, Dr. Juric, MGH) or in a phase I clinical trial of regorafenib monotherapy in acute myeloid leukemia (AML) patients (ClinicalTrials.gov Identifier: NCT03042689, PI, Hobbs, MGH). Both protocols have been IRB approved, and written consent was obtained from all patients.
Protein analyses. Western blotting was performed using antibodies against Stat1 (D1K9Y), phosphorylated (p)-Stat1 (Tyr701) (D4A7), Stat3 (79D7), p-Stat3 (Ser727) (Cell Signaling Technology, Danvers, MA), and IFN-γ (EPR1108) (Abcam, Cambridge, MA). Multiplexed protein array analysis was performed for protein extracts from whole tumors, using V-PLEX Proinflammatory Panel 1 Mouse Kit, V-PLEX Cytokine Panel 1 Mouse Kit and V-PLEX […] (Meso-Scale Discovery, Rockville, MD). For cell supernatant collection, 1x10^6 of RIL-175 cells were cultured in DMEM medium with 2% FBS and regorafenib was given in a various dose.
Supernatant was collected after 36hr of incubation and multiplexed protein array analysis was done using the same kit above.
Flow cytometry analysis. Tumor tissues were extracted from the mice, weighted and minced with a scalpel. Hank’s buffered salt solution (HBSS) with 1.5mg/ml of collagenase and hyaluronidase was added to the minced tissues and incubated for 30 min at 37°C. After incubation, digested tissues were passed through the 70μm cell strainer and washed with PBS with 2% BSA. After preparation, cells were suspended in 2ml of PBS with 2% BSA, then counted using a cell counting plate (Kova slide) (if the final concentration of cell exceeded 10^7 cells/ml, a dilution factor was applied). One hundred microliters of this suspension were used per subsequent flow cytometry staining. […]

[3] = tested on: RIL-175 orthotopic HCC; test: Survival, orthotopic RIL-175 HCC in Rag1–/–/C57Bl/6 mice; assay type: in vivo, mouse; conditions: regorafenib 10 mg/kg; Rag1–/– mice lacking functional T cells
Method: Regorafenib was provided by Bayer and administered by oral gavage daily at a dose of 5, 10 and 20 mg/kg in 34% 1,2-propandiol (Sigma-Aldrich), 34% PEG400 (Sigma-Aldrich), 12% pluronic F68 (Thermo Fischer Scientific, Waltham, Massachusetts, USA), and 20% water, as per manufacturer’s recommendation. Mouse anti-PD1 antibody (clone RMP-014) was purchased from BioXcell (Lebanon, New Hampshire, USA) and Mouse IgG isotype control was purchased from Thermo Fischer Scientific. The STAT3 inhibitor LLL12 was purchased from BioVision (Milpitas, California, USA). Antimouse PD1 antibody or IgG (control) were given intraperitoneally at a dose of 10 mg/kg thrice weekly, as described.[11] Daily gavage of vehicle and intraperitoneal injection of 10 mg/kg of isotype-matched IgG were given as control treatments for anti-PD1 antibody. For the survival studies, moribund status was used as the end point and moribund was defined as symptoms of prolonged distress, >15% of weight loss compared with the starting date, body condition score >2 and tumor size of >24 mm in diameter.
All statistical analyzes were performed using Stata software, V.14.1 (StataCorp, College Station, Texas, USA). […] Quantitative variables were compared using Student’s t-test. […] Statistical analyses in the survival experiments were performed by Cox proportional hazard model and HR and 95% CIs were calculated as well.

[4] = Pharmacokinetic analysis of regorafenib and metabolites in plasma and tumor tissue of mice with HCC and liver damage; conditions: n=4-5 mice
Method: From the orthotopic HCC and liver damage mouse models described above, blood samples were collected at 1, 4, 7 and 24 hours after once-daily oral administration of 5, 10 and 20 mg/kg regorafenib, respectively, for 5 days. Anti-PD1 antibody was given on days 1 and 4 with dose of 10 mg/kg by intraperitoneal injection. Blood samples were drawn from four to five animals per sampling time point. Regorafenib and its active metabolites M-2, M-4 and M-5 were analyzed in plasma samples using a validated bioanalytical liquid chromatography-tandem mass spectrometry.[25 33] Pharmacokinetic (PK) parameters were derived from the area under the plasma concentration versus time curve (AUC) using a non-compartmental analysis.
In addition, we evaluated PK parameters in HCC-bearing mice after regorafenib administration alone at doses of 5, 10 and 20 mg/kg or in combination with anti-PD1 therapy at the 10 mg/kg regorafenib dose for 5 days to achieve a steady state.

CNC(=O)c1cc(Oc2ccc(NC(=O)Nc3ccc(Cl)c(C(F)(F)F)c3)c(F)c2)ccn1 [regorafenib]
Hypoxic tissue area measured by CA-IX staining [1]: significantly decreased | MVD [1]: significant increase | Regorafenib concentration at peak CXCL10 secretion [2]: 1 µM | Level of CXCL10 secreted by RIL-175 cells ([2]; various concentrations, n=6): significantly increased | Survival [3]: no significant benefit | Plasma maximum concentration (Cmax), R10 alone versus R10+P [4]: No difference
